A short description of data set [1]: Solubility in aqueous media. It is filed as physicochemical. The settings on record: salt solubility is system dependent (amount of salt present, relative amount of (R) and (S) salts).
Data set [2] in a line: Stability (aqueous environment, mechanical stress, heat and compression). It is filed as physicochemical. The settings on record: subjected to an aqueous environment or to mechanical stress such as grinding.

Structures can show the parent of a compound that is named as a salt. Where two headings read alike, the source gives them in different places.

`CC(OC(=O)C(C)(C)C)OC(=O)C(C)(N)Cc1ccc(O)c(O)c1` (mixture of isomers) [solvated phosphate salt mixture of (R,S)-POE ester of methyl]: in data set [1], the solubility is 57 to 197 grams per liter. Same read-out and setting: for `CC(OC(=O)C(C)(C)C)OC(=O)C(C)(N)Cc1ccc(O)c(O)c1` (stereo not shown) [solvated tartaric acid salt mixture] the value was 156 to 383 grams per liter. For `CC(OC(=O)C(C)(C)C)OC(=O)[C@@](C)(N)Cc1ccc(O)c(O)c1` (stereo partly drawn) [POE ester bases, (R,S)-l-pivaloyloxyethyl (S)-3-(3,4-dihydroxyphenyl)-2-methylalaninate], the stability entry in data set [2] is listed as “tend to be unstable”.

Consider `C[C@](N)(Cc1ccc(O)c(O)c1)C(=O)O` (single isomer, unassigned) [methyldopa, L or (S)-3-(3,4-dihydroxyphenyl)-2-methylalanine], for which the solubility in data set [1] (read-out: solubility) is 10000 µg/mL.

Values taken from EP0139983A1, “Crystalline salts of L or (S)-3-(3,4-dihydroxyphenyl)-2-methylalanine esters and process” (Merck & Co., Inc., priority 1983, dated 1985).
